Laboratory results published in patent publication US20230192722A1, “SALTS AND SOLID FORMS OF AN FGFR INHIBITOR AND PROCESSES OF PREPARING THEREOF” (Incyte Corporation, priority 2021, published 2023).

Assays:
Type in all cases: physicochemical
[1] = Solubility measurement of Compound 1 Phosphate, saturated in different solvent systems, measured by HPLC
Procedure: The Compound 1 Phosphate sample was saturated in different solvent systems (Table 4) at 25° C. and 50° C., respectively. Each solubility was measured by HPLC.

[2] = Phase equilibration of form mixtures, relative stability of Compound 1 Phosphate forms (XRPD); conditions: mixture of Forms I, II
Procedure: The relative stability of the three forms (Forms I, II, and III) as well as amorphous form of Compound 1 Phosphate studied and compared by phase equilibration of mixture experiments in EtOH and in a mixture solvent of EtOH/H2O (9/1). As summarized in Table 16, Compound 1 Phosphate (Form I) was mixed and slurred with other forms in EtOH and in a mixed solvent of EtOH/H2O (9/1) at 50° C. for 6 h respectively.

[3] = Solubility measurement of Compound 1 Phosphate, saturated in different solvent systems, measured by HPLC; conditions: DCM, 50° C. column, measured at 40° C.

Work on `COc1cc2[nH]nc(-c3ccc(N4CCN5C[C@H](O)C[C@H]5C4)nc3)c2nc1-c1cccc(C)c1C.O=P(O)(O)O` [Compound 1 Phosphate, (7R,8aS)-2-(5-(5-(2,3-dimethylphenyl)-6-methoxy-1H-pyrazolo[4,3-b]pyridin-3-yl)pyridin-2-yl)octahydropyrrolo[1,2-a]pyrazin-7-ol phosphate] yielded a Solubility ([1]; 1,4-dioxane, 25° C.) of 150 µg/mL, a Solubility ([1]; 1,4-dioxane, 50° C.) of 230 µg/mL and a Solubility ([1]; 2-Butanone, 25° C.) of 100 µg/mL. For the same molecule, the Solubility ([1]; 2-Butanone, 50° C.) was 130 µg/mL, the Solubility ([1]; Acetone, 25° C.) was 70 µg/mL and the Solubility ([1]; Acetone, 50° C.) was 100 µg/mL. It also gave a Solubility ([1]; CH3CN, 25° C.) of less than 10 µg/mL, a Solubility ([1]; CH3CN, 50° C.) of 10 µg/mL and a Solubility ([1]; CHCl3, 25° C.) of 60 µg/mL. It also gave a Solubility ([1]; CHCl3, 50° C.) of 130 µg/mL, a Solubility ([1]; DCM, 25° C.) of 30 µg/mL and a Solubility ([1]; DMF, 25° C.) of 14410 µg/mL. The Solubility ([1]; DMF, 50° C.) was 19060 µg/mL, the Solubility ([1]; DMSO, 25° C.) was 33740 µg/mL and the Solubility ([1]; DMSO, 50° C.) was 44990 µg/mL. The Solubility ([1]; EtOAc, 25° C.) was 50 µg/mL, the Solubility ([1]; EtOAc, 50° C.) was 60 µg/mL and the Solubility ([1]; EtOH, 25° C.) was 530 µg/mL. The Solubility ([1]; EtOH, 50° C.) was 680 µg/mL, the Solubility ([1]; Ethyl formate, 25° C.) was 120 µg/mL and the Solubility ([1]; Ethyl formate, 50° C.) was 140 µg/mL. It also gave a Solubility ([1]; H2O, 25° C.) of 260 µg/mL, a Solubility ([1]; H2O, 50° C.) of 1100 µg/mL and a Solubility ([1]; Heptane, 25° C.) of less than 10 µg/mL. The Solubility ([1]; Heptane, 50° C.) was less than 10 µg/mL, the Solubility ([1]; IPA, 25° C.) was 230 µg/mL and the Solubility ([1]; IPA, 50° C.) was 280 µg/mL. It also gave a Solubility ([1]; IPAc, 25° C.) of 20 µg/mL, a Solubility ([1]; IPAc, 50° C.) of 30 µg/mL and a Solubility ([1]; MIBK, 25° C.) of 160 µg/mL. It also gave a Solubility ([1]; MIBK, 50° C.) of 160 µg/mL, a Solubility ([1]; MTBE, 25° C.) of 60 µg/mL and a Solubility ([1]; MTBE, 50° C.) of 70 µg/mL. The Solubility ([1]; MeOEtOH, 25° C.) was 4140 µg/mL, the Solubility ([1]; MeOEtOH, 50° C.) was 5570 µg/mL and the Solubility ([1]; MeOH, 25° C.) was 2260 µg/mL. For the same molecule, the Solubility ([1]; MeOH, 50° C.) was 2440 µg/mL, the Solubility ([1]; THF, 25° C.) was 60 µg/mL and the Solubility ([1]; THF, 50° C.) was 70 µg/mL. The Solubility ([1]; Toluene, 25° C.) was less than 10 µg/mL, the Solubility ([1]; Toluene, 50° C.) was 20 µg/mL and the “Solubility (almost insoluble)” value ([1]; in CH3CN, CHCl3, DCM, 1,4-dioxane, MIBK, toluene, THF, acetone, n-BuOH, MTBE, EtOH, EtOAc, ethyl formate, heptane, iso-butyl acetate, IPAc, n-PrOH, IPA, MEK at 25° C. and 50° C., and in H2O at 25° C.) was less than 1000 µg/mL. The “Solubility (relatively good solubility)” value ([1]; in DMF and DMSO, at both 25° C. and 50° C.) was greater than 10000 µg/mL, the “Solubility (slightly soluble)” value ([1]; in MeOH and MeOEtOH at 25° C. and 50° C., and in H2O at 50° C.) was 1000 to 10000 µg/mL and the Solubility ([1]; iso-Butyl acetate, 25° C.) was 110 µg/mL. For the same molecule, the Solubility ([1]; iso-Butyl acetate, 50° C.) was 150 µg/mL, the Solubility ([1]; n-BuOH, 25° C.) was 360 µg/mL and the Solubility ([1]; n-BuOH, 50° C.) was 470 µg/mL. The Solubility ([1]; n-PrOH, 25° C.) was 400 µg/mL, the Solubility ([1]; n-PrOH, 50° C.) was 400 µg/mL and the “Product Solid Form” value ([2]; III and Amorphous slurried in EtOH at 50° C. for 6 h) was “transformed to Form I”. For the same molecule, the “Product Solid Form” value ([2]; III and Amorphous slurried in EtOH/H2O (9/1) at 50° C. for 6 h) was “transformed to Form I” and the Solubility [3] was 0.05 (40° C.) mg/mL.
